This note sets out measurements from paper PMC10980815, “Cell surface patching via CXCR4-targeted nanothreads for cancer metastasis inhibition” (Nature Communications, 2024).

What all share (assay): Dose-dependent chemokine receptor occupation assay
Common to all, as to format: binding, 4T1 murine cells

One assay addresses T1, CCR4 (Mus musculus, UniProt P51680).
T1 construct: endogenous in cells; host or cells: 4T1 murine breast cancer cells
T1 sequence (P51680 1-360): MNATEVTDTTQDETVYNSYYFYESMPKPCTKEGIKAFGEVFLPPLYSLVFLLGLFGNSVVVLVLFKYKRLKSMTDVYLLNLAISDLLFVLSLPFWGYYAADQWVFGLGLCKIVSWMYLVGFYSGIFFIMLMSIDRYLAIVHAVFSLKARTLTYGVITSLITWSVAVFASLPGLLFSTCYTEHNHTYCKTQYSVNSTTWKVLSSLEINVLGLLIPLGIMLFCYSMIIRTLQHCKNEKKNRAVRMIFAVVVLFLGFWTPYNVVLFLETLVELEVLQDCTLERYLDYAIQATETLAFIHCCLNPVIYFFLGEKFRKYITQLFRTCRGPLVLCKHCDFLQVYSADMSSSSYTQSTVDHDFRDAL
The note with it: 4T1 cells, 0.1 nM to 1 mM, 1 h. Here is the method:
(§1) To validate the specificity of the BS (CXCR4-binding sequence) to CXCR4, a dose-dependent chemokine receptors occupation assay and a chemokine receptors competitive binding assay were conducted. […] Unoccupied chemokine receptors (CXCR4, CXCR7, CXCR2, CXCR5, and CCR4) on cell surface were stained with PE anti-human CD184/CXCR4 Antibody (1:300 dilution), anti-CXCR7-PE (1:300 dilution), anti-CXCR2-PE (1:300 dilution), anti-CXCR5-PE (1:300 dilution), and PE anti-human CD194/CCR4 Antibody (1:300 dilution) at 4 °C for 1 h, prior to flow cytometry analysis. In the chemokine receptors competitive binding assay, 4T1 cells (5 × 10^5 cells) were pre-blocked with PE anti-human CD184/CXCR4 Antibody (1:300 dilution), anti-CXCR7-PE (1:300 dilution), anti-CXCR2-PE (1:300 dilution), anti-CXCR5-PE (1:300 dilution), and PE anti-human CD194/CCR4 Antibody (1:300 dilution) at 4 °C for 1 h. Subsequently, these cells were treated with P-Cy5-BS-CM1-Cy5 (5 nM Cy5 equivalence) for 1 h. Following the treatments, cells were washed three times with PBS and subjected to flow cytometry analysis.

The target in another assay is T2, CXCR7 (Mus musculus, UniProt P56485).
T2 construct: endogenous in cells; host or cells: 4T1 murine breast cancer cells
T2 sequence (P56485 whole entry): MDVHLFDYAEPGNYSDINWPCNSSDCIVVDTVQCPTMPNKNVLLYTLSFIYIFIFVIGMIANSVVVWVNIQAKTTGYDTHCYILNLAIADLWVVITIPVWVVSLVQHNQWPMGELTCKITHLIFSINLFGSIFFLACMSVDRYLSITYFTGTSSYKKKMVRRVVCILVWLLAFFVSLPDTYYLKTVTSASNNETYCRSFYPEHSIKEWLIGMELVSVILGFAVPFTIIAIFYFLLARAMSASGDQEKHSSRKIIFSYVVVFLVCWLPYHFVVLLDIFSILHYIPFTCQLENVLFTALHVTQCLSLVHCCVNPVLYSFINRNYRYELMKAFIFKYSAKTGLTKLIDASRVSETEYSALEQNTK
The note with it: 4T1 cells, 0.1 nM to 1 mM, 1 h. Here is the method: as §1

In the next assay the target is T3, CXCR5 (Mus musculus, UniProt Q04683).
T3 construct: endogenous in cells; host or cells: 4T1 murine breast cancer cells
T3 sequence (Q04683 1-374): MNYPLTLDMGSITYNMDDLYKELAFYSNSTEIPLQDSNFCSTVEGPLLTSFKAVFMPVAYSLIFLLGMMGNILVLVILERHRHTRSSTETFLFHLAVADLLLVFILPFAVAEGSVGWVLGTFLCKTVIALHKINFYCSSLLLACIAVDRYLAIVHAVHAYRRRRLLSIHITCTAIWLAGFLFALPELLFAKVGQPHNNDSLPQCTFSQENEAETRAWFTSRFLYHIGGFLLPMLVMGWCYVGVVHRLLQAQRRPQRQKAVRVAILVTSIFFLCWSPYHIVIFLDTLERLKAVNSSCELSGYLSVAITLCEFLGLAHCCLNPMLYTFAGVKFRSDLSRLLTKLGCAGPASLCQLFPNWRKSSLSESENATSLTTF
The conditions noted are these: 4T1 cells, 0.1 nM to 1 mM, 1 h. The procedure: as §1

For another assay, the target named is T4, CXCR2 (Mus musculus, UniProt P35343).
T4 construct: endogenous in cells; host or cells: 4T1 murine breast cancer cells
T4 sequence (P35343 1-359): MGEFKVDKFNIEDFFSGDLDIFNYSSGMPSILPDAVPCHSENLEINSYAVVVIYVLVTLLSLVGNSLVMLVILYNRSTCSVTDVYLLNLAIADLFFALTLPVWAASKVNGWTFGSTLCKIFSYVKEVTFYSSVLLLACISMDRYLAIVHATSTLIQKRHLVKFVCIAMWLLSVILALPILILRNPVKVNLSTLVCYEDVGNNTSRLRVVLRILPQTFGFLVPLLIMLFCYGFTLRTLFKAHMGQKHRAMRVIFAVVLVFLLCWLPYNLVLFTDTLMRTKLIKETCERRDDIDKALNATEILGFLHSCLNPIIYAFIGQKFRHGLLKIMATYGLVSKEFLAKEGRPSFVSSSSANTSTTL
The conditions noted are these: 4T1 cells, 0.1 nM to 1 mM, 1 h. Here is the method: as §1

Another assay concerns the target T5, CXCR4 (Mus musculus, UniProt P70658).
T5 construct: endogenous in cells; host or cells: 4T1 murine breast cancer cells
The note with it: 4T1 cells, 0.1 nM to 1 mM, 25 °C, 1 h; unoccupied receptor stained with PE antibody. Here is the method: as §1

T5 sequence (P70658 whole entry): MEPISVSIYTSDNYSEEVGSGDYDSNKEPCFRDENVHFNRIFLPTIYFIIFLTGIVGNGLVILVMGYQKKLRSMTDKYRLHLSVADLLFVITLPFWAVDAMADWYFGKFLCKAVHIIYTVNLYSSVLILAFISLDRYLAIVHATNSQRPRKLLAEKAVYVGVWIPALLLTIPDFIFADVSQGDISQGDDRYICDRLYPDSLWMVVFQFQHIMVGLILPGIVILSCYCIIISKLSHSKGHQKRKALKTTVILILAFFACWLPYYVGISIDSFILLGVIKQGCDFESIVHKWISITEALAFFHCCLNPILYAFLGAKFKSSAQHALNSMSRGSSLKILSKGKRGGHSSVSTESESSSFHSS

Take LGASWHRPDKCCLGYQKRPLPA [Free BS]: the CCR4 occupation entry on CCR4 is “did not occupy”. Also, on CXCR7, the CXCR7 occupation result is listed as “did not occupy”. For the same sequence, the CXCR5 occupation result at CXCR5 was “did not occupy”. In addition, the CXCR2 occupation entry at CXCR2 is given as “did not occupy”. Also, the CXCR4 occupation result on CXCR4 is listed as “comparable CXCR4 occupation to AMD3100”.
